Results on 4 molecules are retold here after PMC9667936, “Functional mapping of the 14-3-3 hub protein as a guide to design 14-3-3 molecular glues” (Chemical Science, 2022).

Where a SMILES comes first, the peptide text is derived from it. [ ]: non-standard residue; d: D form. The star is where a group is joined. ξ: configuration not given here. FITC = O=C1OC2(c3ccc(O)cc3Oc3cc(O)ccc32)c2ccc(NC(=S)*)cc21; Phe(4-NO2) = N[C@@H](Cc1ccc([N+](=O)[O-])cc1)C(=O)O; ξAla(4-thiazolyl) = NC(Cc1cscn1)C(=O)O; pS = N[C@@H](COP(=O)(O)O)C(=O)O; β3hS = N[C@@H](CO)CC(=O)O; Nva = CCC[C@H](N)C(=O)O; AEA = NCCOCC(=O)O; βAla = NCCC(=O)O

The target in the test is T1, 14-3-3γ (Homo sapiens, UniProt P61981).
T1 construct: made in house; host or cells: E. coli NiCo21 (DE3)
T1 sequence (P61981 1-247): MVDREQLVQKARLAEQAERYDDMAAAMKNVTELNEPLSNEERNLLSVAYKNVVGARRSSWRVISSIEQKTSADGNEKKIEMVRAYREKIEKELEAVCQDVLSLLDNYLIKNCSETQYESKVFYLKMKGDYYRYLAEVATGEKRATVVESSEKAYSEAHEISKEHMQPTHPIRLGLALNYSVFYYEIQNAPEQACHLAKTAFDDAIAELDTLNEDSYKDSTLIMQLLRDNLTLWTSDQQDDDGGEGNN
In words: Fluorescence anisotropy (FA) binary binding study: 14-3-3 titrated to fluorescein-labelled peptide. The following applies: for individual ΔΔG of removed residue / ΔΔG (to previous): FA; for individual ΔΔG of removed residue: ΔG relative to the previously truncated peptide; for fold change in binding affinity on truncation: FA KD relative to the previous (one amino acid longer) peptide. How it is done:
14-3-3γ protein expression (FP/ITC experiments)
(§1) A pPROEX HTb expression vector encoding the human 14-3-3 protein gamma (14-3-3γ) with an N-terminal his6-tag was transformed by heat shock into NiCo21 (DE3) competent cells. Single colonies were cultured in 50 mL LB medium (100 µg/mL ampicillin). After overnight incubation at 37 °C, cultures were transferred to 2 L TB media (100 µg/mL ampicillin, 1 mM MgCl2) and incubated at 37 °C until an OD600 nm of 0.8-1.2 was reached. Protein expression was then induced with 0.4 mM isopropyl-β-d-thiogalactoside (IPTG), and cultures were incubated overnight at 18 °C. Cells were harvested by centrifugation (8600 rpm, 20 minutes, 4 °C) and resuspended in lysis buffer (50 mM Hepes, pH 8.0, 300 mM NaCl, 12.5 mM imidazole, 5 mM MgCl2, 2 mM βME) containing cOmplete™ EDTA-free Protease Inhibitor Cocktail tablets (1 tablet/100 ml lysate) and benzonase (1 µl/100 ml). After lysis using a C3 Emulsiflex-C3 homogenizer (Avestin), the cell lysate was cleared by centrifugation (20000 rpm, 30 minutes, 4 °C) and purified using Ni2+-affinity chromatography (Ni-NTA superflow cartridges, Qiagen).
Typically two 5 mL columns (flow 5 mL/min) were used for a 2 L culture in which the lysate was loaded on the column washed with 10 CV wash buffer (50 mM Hepes, pH 8.0, 300 mM NaCl, 25 mM imidazole, 2 mM βME) and eluted in several fractions (2-4 CV) of elution buffer (50 mM Hepes, pH 8.0, 300 mM NaCl, 250 mM imidazole, 2 mM βME). Fractions containing the 14-3-3 protein were combined and dialyzed into 25 mM HEPES pH 8.0, 100 mM NaCl, 10 mM MgCl2, 500 µM TCEP. Finally, the protein was concentrated to ∼60 mg/mL, analyzed Q-Tof LC/MS, and aliquots were flash-frozen for storage at […]
as §1, with “sigma truncated after T231 (14-3-3σΔc) and” for “gamma (14-3-3γ)”, “tablet/ 100” for “tablet/100”, “µl/ 100” for “µl/100”, “ml).” for “ml). After lysis using a C3 Emulsiflex-C3 homogenizer (Avestin), the cell lysate was cleared by centrifugation (20000 rpm, 30 minutes, 4 °C) and purified using Ni2+-affinity chromatography (Ni-NTA superflow cartridges, Qiagen).”
After lysis using a C3 Emulsiflex-C3 homogenizer (Avestin), the cell lysate was cleared by centrifugation (20000 rpm, 30 minutes, 4 °C) and purified using Ni2+-affinity chromatography (Ni-NTA superflow cartridges, Qiagen). Typically two 5 mL columns were used for a 2 L culture in which the lysate was loaded on the column washed with 10 CV wash buffer (50 mM Hepes, pH 8.0, 300 mM NaCl, 25 mM imidazole, 2 mM βME) and eluted with several fractions (2-4 CV) of elution buffer (50 mM Hepes, pH 8.0, 300 mM NaCl, 250 mM imidazole, 2 mM βME). Fractions containing the 14-3-3 protein were combined and dialyzed into 25 mM HEPES pH 8.0, 200 mM NaCl, 10 mM MgCl2, 2 mM βME. In addition, 1 mg TEV was added for each 100 mg purified protein to remove the purification tag. The cleaved sample was then again loaded on a 10 mL Ni-NTA column to separate the cleaved product from the expression tag and residual uncleaved protein. The flowthrough was loaded on a Superdex 75 pg 16/60 size exclusion column (GE Life Sciences) using 25 mM HEPES, 100 mM NaCl, 10 mM MgCl2, 500 μM TCEP (adjusted to pH=8.0) as running buffer. Fractions containing the 14-3-3 protein were pooled and concentrated to ∼60 mg/mL, analyzed Q-Tof LC/MS, and aliquots were flash-frozen for storage at −80 […]
The peptides 1 and 2a-d were synthesized on 50 µmol scale on a Rink amide MBHA resin […]

The mark [1] stands for this setting: Table S2, FA KD of peptide divided by KD of previous (one amino acid longer) peptide, mean of n = 3.
Setting [2] is: Table S2, KD / KD of previous (one amino acid longer) peptide, replicate 1.
Where [3] appears, read: Table S2, KD / KD of previous (one amino acid longer) peptide, replicate 2.
Where [4] appears, read: Table S2, KD / KD of previous (one amino acid longer) peptide, replicate 3.
[5] abbreviates: Table S2, calculated from FA KD, mean of n = 3.
The mark [6] stands for this setting: Table S2, from FA KD, replicate 1.
Setting [7] is: Table S2, from FA KD, replicate 2.
[8] abbreviates: Table S2, from FA KD, replicate 3.
Where [9] appears, read: Table S2, ΔG minus ΔG of previous peptide, replicate 1.
Where [10] appears, read: Table S2, ΔG minus ΔG of previous peptide, replicate 2.
[11] abbreviates: Table S2, ΔG minus ΔG of previous peptide, replicate 3.
Where [12] appears, read: Table S2, ΔG of peptide minus ΔG of previous (one amino acid longer) peptide, mean of n = 3.
[13] abbreviates: Table S3, FA KD of peptide divided by KD of previous (one amino acid longer) peptide, mean of n = 3.
Setting [14] is: Table S3, KD / KD of previous peptide, replicate 1.
Setting [15] is: Table S3, KD / KD of previous peptide, replicate 2.
The mark [16] stands for this setting: Table S3, KD / KD of previous peptide, replicate 3.
The mark [17] stands for this setting: Table S3, calculated from FA KD, mean of n = 3.
The mark [18] stands for this setting: Table S3, from FA KD, replicate 1.
Where [19] appears, read: Table S3, from FA KD, replicate 2.
Setting [20] is: Table S3, from FA KD, replicate 3.
The mark [21] stands for this setting: Table S3, ΔG minus ΔG of previous peptide, replicate 1.
The mark [22] stands for this setting: Table S3, ΔG minus ΔG of previous peptide, replicate 2.
The mark [23] stands for this setting: Table S3, ΔG minus ΔG of previous peptide, replicate 3.
Where [24] appears, read: Table S3, ΔG of peptide minus ΔG of previous (one amino acid longer) peptide, mean of n = 3.

`CCC[C@H](N)C(=O)N[C@@H](Cc1ccc([N+](=O)[O-])cc1)C(=O)NC(Cc1cscn1)C(=O)N[C@@H](COP(=O)(O)O)C(=O)N[C@@H](Cc1ccc([N+](=O)[O-])cc1)C(=O)N[C@@H](CO)CC(=O)NCCC(=O)N[C@@H](Cc1ccc([N+](=O)[O-])cc1)C(=O)N[C@@H](CCCCN)C(=O)N[C@@H](C)C(=O)N[C@@H](CCCCNC(=S)Nc1ccc2c(c1)C(=O)OC21c2ccc(O)cc2Oc2cc(O)ccc21)C(N)=O` (stereo partly drawn) [2a] (H-[Nva][Phe(4-NO2)][ξAla(4-thiazolyl)][pS][Phe(4-NO2)][β3hS][βAla][Phe(4-NO2)]KAK(FITC)-NH2): the “individual ΔΔG of removed residue” value is listed as “only minor energy contributions”. The “Fold change to previous” value under setting [1] is listed as 1,98. The “Fold change to previous” value under setting [2] is listed as 1,72. Besides, the “Fold change to previous” value under setting [3] is 2,56. For the same molecule, the “Fold change to previous” value under setting [4] is 1,66. Moreover, the ΔG under setting [5] is given as -10,13 kcal/mol. Further, the ΔG under setting [6] is on record as -10,29 kcal/mol. Further, the ΔG under setting [7] is -10,00 kcal/mol. For the same molecule, under setting [8], the ΔG is -10,11 kcal/mol. Under setting [9], the ΔΔG (to previous) is listed as 0,32 kcal/mol. Under setting [10], the ΔΔG (to previous) is reported as 0,56 kcal/mol. Moreover, the ΔΔG (to previous) under setting [11] was 0,30 kcal/mol. Under setting [12], the ΔΔG (to previous) is 0,39 kcal/mol.

As to `C[C@H](NC(=O)[C@H](CCCCN)NC(=O)[C@H](Cc1ccc([N+](=O)[O-])cc1)NC(=O)CCNC(=O)C[C@H](CO)NC(=O)[C@H](Cc1ccc([N+](=O)[O-])cc1)NC(=O)[C@H](COP(=O)(O)O)NC(=O)C(Cc1cscn1)NC(=O)[C@@H](N)Cc1ccc([N+](=O)[O-])cc1)C(=O)N[C@@H](CCCCNC(=S)Nc1ccc2c(c1)C(=O)OC21c2ccc(O)cc2Oc2cc(O)ccc21)C(N)=O` (stereo partly drawn) [2b] (H-[Phe(4-NO2)][ξAla(4-thiazolyl)][pS][Phe(4-NO2)][β3hS][βAla][Phe(4-NO2)]KAK(FITC)-NH2), the “individual ΔΔG of removed residue” value is “only minor energy contributions”. Also, the “Fold change to previous” value under setting [1] is 2,86. Under setting [2], the “Fold change to previous” value is recorded as 3,64. Further, the “Fold change to previous” value under setting [3] is 2,32. The “Fold change to previous” value under setting [4] is listed as 2,61. Under setting [5], the ΔG is reported as -9,52 kcal/mol. For the same molecule, the ΔG under setting [6] was -9,53 kcal/mol. The ΔG under setting [7] is -9,50 kcal/mol. The ΔG under setting [8] is reported as -9,54 kcal/mol. Further, the ΔΔG (to previous) under setting [9] is given as 0,76 kcal/mol. Under setting [10], the ΔΔG (to previous) was 0,50 kcal/mol. The ΔΔG (to previous) under setting [11] is reported as 0,57 kcal/mol. Also, under setting [12], the ΔΔG (to previous) is 0,61 kcal/mol.

For `CCC[C@H](NC(=O)[C@@H](CCCCN)NC(=O)COCCNC(=S)Nc1ccc2c(c1)C(=O)OC21c2ccc(O)cc2Oc2cc(O)ccc21)C(=O)N[C@@H](Cc1ccc([N+](=O)[O-])cc1)C(=O)NC(Cc1cscn1)C(=O)N[C@@H](COP(=O)(O)O)C(=O)N[C@@H](Cc1ccc([N+](=O)[O-])cc1)C(=O)N[C@@H](CO)CC(=O)NCCC(=O)N[C@@H](Cc1ccc([N+](=O)[O-])cc1)C(N)=O` (stereo partly drawn) [2e] ({FITC-AEA}-[dK][Nva][Phe(4-NO2)][ξAla(4-thiazolyl)][pS][Phe(4-NO2)][β3hS][βAla][Phe(4-NO2)]-NH2), the “fold change in binding affinity on truncation” value was “five-fold reduction”. Further, the “Fold change to previous” value under setting [13] is on record as 5,55. Besides, the “Fold change to previous” value under setting [14] is 5,54. Besides, the “Fold change to previous” value under setting [15] is 7,13. For the same molecule, the “Fold change to previous” value under setting [16] is given as 3,98. The ΔG under setting [17] was -9,53 kcal/mol. In addition, the ΔG under setting [18] is on record as -9,60 kcal/mol. Moreover, the ΔG under setting [19] is reported as -9,39 kcal/mol. Moreover, the ΔG under setting [20] is -9,59 kcal/mol. Further, the “ΔΔG (to previous)” value under setting [21] is 1,01 kcal/mol. Also, the “ΔΔG (to previous)” value under setting [22] is listed as 1,16 kcal/mol. Also, the “ΔΔG (to previous)” value under setting [23] was 0,82 kcal/mol. In addition, under setting [24], the “ΔΔG (to previous)” value is recorded as 1,00 kcal/mol.

As for `CCC[C@H](NC(=O)[C@@H](CCCCN)NC(=O)COCCNC(=S)Nc1ccc2c(c1)C(=O)OC21c2ccc(O)cc2Oc2cc(O)ccc21)C(=O)N[C@@H](Cc1ccc([N+](=O)[O-])cc1)C(=O)NC(Cc1cscn1)C(=O)N[C@@H](COP(=O)(O)O)C(=O)N[C@@H](Cc1ccc([N+](=O)[O-])cc1)C(=O)N[C@@H](CO)CC(=O)NCCC(N)=O` (stereo partly drawn) [2f] ({FITC-AEA}-[dK][Nva][Phe(4-NO2)][ξAla(4-thiazolyl)][pS][Phe(4-NO2)][β3hS][βAla]-NH2), the “fold change in binding affinity on truncation” value is 12 fold and the “individual ΔΔG of removed residue” value is 1.5 kcal/mol. In addition, the “Fold change to previous” value under setting [13] was 12,39. Also, the “Fold change to previous” value under setting [14] is on record as 12,69. Besides, the “Fold change to previous” value under setting [15] is on record as 11,53. Further, under setting [16], the “Fold change to previous” value was 12,93. Moreover, the ΔG under setting [17] is listed as -8,04 kcal/mol. Further, under setting [18], the ΔG is recorded as -8,10 kcal/mol. In addition, the ΔG under setting [19] is recorded as -7,95 kcal/mol. Moreover, the ΔG under setting [20] was -8,07 kcal/mol. Also, the “ΔΔG (to previous)” value under setting [21] is listed as 1,50 kcal/mol. Also, the “ΔΔG (to previous)” value under setting [22] was 1,45 kcal/mol. Further, under setting [23], the “ΔΔG (to previous)” value is on record as 1,52 kcal/mol. For the same molecule, the “ΔΔG (to previous)” value under setting [24] is listed as 1,49 kcal/mol.
